Measurements: US10597388B2, “Pyridazinone herbicides” (FMC CORPORATION, priority 2014, dated 2020)

Key:
Format in all cases: in vivo
[1] = test system: crabgrass, large (large crabgrass, Digitaria sanguinalis); experiment: Test C greenhouse herbicide test, pre- and postemergence
How it was run: (§1)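 Two application timings: at sowing into a soil/sand blend, and on 2–18 cm seedlings in peat-vermiculite potting mix. A non-phytotoxic, surfactant-containing solvent carried the compounds. Plants were compared with controls and rated visually on 0–100 after 13–15 d.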

[2] = test system: oilseed rape (Brassica napus); experiment: as above
How it was run: as §1

[3] = test system: galium (catchweed bedstraw, Galium aparine); experiment: Test A greenhouse herbicide test, postemergence
How it was run: (§2)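 Plants grown in loam soil/sand blend pots were treated postemergence at 2 to 10 cm height, one- to two-leaf stage, with formulated test chemicals. After approximately 10 d in a greenhouse, injury was rated visually against untreated controls on a 0 to 100 scale (0 no effect, 100 complete control).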

[4] = test system: blackgrass (Alopecurus myosuroides); experiment: Test A greenhouse herbicide test, postemergence; conditions: for Plant response rating, Blackgrass: 125 g ai/ha, 0 to 100 scale where 0 is no effect and 100 is complete control; for Blackgrass plant response rating: 500 g ai/ha, 0 to 100 scale, 0 is no effect, 100 is complete control
How it was run: as §2

[5] = test system: oat, wild (wild oat, Avena fatua); experiment: Test C greenhouse herbicide test, postemergence; conditions: for Plant response rating, Oat, Wild: Postemergence
How it was run: (§3)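 Test chemicals were applied postemergence to greenhouse plants at the 1- to 4-leaf stage (2–18 cm tall) growing in peat/vermiculite medium. After 13–15 d, injury was rated visually against untreated controls on a 0–100 scale (0 = no effect, 100 = complete control).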

kochia (Kochia scoparia) [6] = experiment: Test C greenhouse herbicide test, postemergence; conditions: for Plant response rating, Kochia: Postemergence
How it was run: as §3

[7] = test system: ragweed (common ragweed, Ambrosia elatior); experiment: Test A greenhouse herbicide test, pre- and postemergence
How it was run: (§4)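 Seeds sown in loam–sand blend got a preemergence directed soil spray of compound in non-phytotoxic solvent with surfactant. Postemergence treatment was given at 2–10 cm, one- to two-leaf stage. After ~10 d in greenhouse, injury was rated visually vs untreated controls, 0 (no effect) to 100 (complete control).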

corn (Zea mays) = experiment: as above; conditions: Postemergence
How it was run: as §4

kochia (Kochia scoparia) [8] = experiment: as above
How it was run: as §4

[9] = test system: pigweed (Amaranthus retroflexus); experiment: as above
How it was run: as §4

[10] = test system: barnyardgrass (Echinochloa crus-galli); experiment: as above
How it was run: as §4

[11] = test system: wheat (Triticum aestivum); experiment: as above; conditions: Postemergence
How it was run: as §4

[12] = Postemergence, 125 g ai/ha, scale 0 to 100, 0 is no effect, 100 is complete control
[13] = Postemergence, 250 g ai/ha, scale 0 to 100, 0 no effect, 100 complete control, 13 to 15 d
[14] = postemergence, 62 g ai/ha, scale 0 to 100, 0 no effect, 100 complete control
[15] = 125 g ai/ha, 0 to 100 scale where 0 is no effect and 100 is complete control
[16] = 500 g ai/ha, visual rating after approx. 10 d, 0 to 100 scale (0 no effect, 100 complete control)
[17] = 125 g ai/ha, scale 0 to 100, 0 is no effect, 100 is complete control
[18] = 250 g ai/ha, scale 0 to 100, 0 no effect, 100 complete control, 13 to 15 d
[19] = Postemergence, 125 g ai/ha, 0 to 100 scale where 0 is no effect and 100 is complete control
[20] = Postemergence, 500 g ai/ha, visual rating after approx. 10 d, 0 to 100 scale (0 no effect, 100 complete control)
[21] = Preemergence, 125 g ai/ha, 0 to 100 scale where 0 is no effect and 100 is complete control
[22] = Preemergence, 500 g ai/ha, 0 to 100 scale where 0 is no effect and 100 is complete control
[23] = Postemergence, 500 g ai/ha, 0 to 100 scale, 0 is no effect, 100 is complete control
[24] = Postemergence, 31 g ai/ha, scale 0 to 100 (0 no effect, 100 complete control)
[25] = Preemergence, 31 g ai/ha, scale 0 to 100, 0 is no effect, 100 is complete control
[26] = Preemergence, 62 g ai/ha, scale 0 to 100, 0 is no effect, 100 is complete control
[27] = Preemergence, 125 g ai/ha, scale 0 to 100, 0 is no effect, 100 is complete control
[28] = Preemergence, 250 g ai/ha, scale 0 to 100 (0 no effect, 100 complete control)
[29] = 31 g ai/ha, scale 0 to 100 (0 no effect, 100 complete control)

COc1nn(C)c(=O)c(-c2c(C)sc3ccc(Cl)cc23)c1O [Compound 100]
Plant response rating, Crabgrass, Large [1, 12]: 25
Plant response rating, Crabgrass, Large [1, 13]: 15
Crabgrass, Large plant response rating [1, 14]: 15
Plant response rating, Oilseed Rape [2, 12]: 10
Plant response rating, Oilseed Rape [2, 13]: 90
Oilseed Rape plant response rating [2, 14]: 60
Plant response rating, Galium [3, 15]: 90
Plant response rating, Galium [3, 16]: 100
Plant response rating, Blackgrass [4]: 40
Blackgrass plant response rating [4]: 70
Plant response rating, Oat, Wild [5, 17]: 85
Plant response rating, Oat, Wild [5, 18]: 95
Oat, Wild plant response rating [5, 14]: 70
Plant response rating, Kochia (kochia (Kochia scoparia) [6]; [17]): 95
Plant response rating, Kochia (kochia (Kochia scoparia) [6]; [18]): 95
Kochia plant response rating (kochia (Kochia scoparia) [6]; [14]): 90
Plant response rating, Ragweed [7, 19]: 90
Plant response rating, Ragweed [7, 20]: 90
Ragweed plant response rating [7, 21]: 40
Plant response rating, Ragweed [7, 22]: 80
Plant response rating, Corn (corn (Zea mays); [15]): 0
Plant response rating, Corn (corn (Zea mays); [16]): 20
Plant response rating, Kochia (kochia (Kochia scoparia) [8]; [19]): 70
Plant response rating, Kochia (kochia (Kochia scoparia) [8]; [20]): 100
Kochia plant response rating (kochia (Kochia scoparia) [8]; [21]): 30
Plant response rating, Kochia (kochia (Kochia scoparia) [8]; [22]): 70
Plant response rating, Pigweed [9, 19]: 80
Plant response rating, Pigweed [9, 20]: 90
Pigweed plant response rating [9, 21]: 100
Plant response rating, Pigweed [9, 22]: 100
Plant response rating, Barnyardgrass [10, 19]: 30
Barnyardgrass plant response rating [10, 23]: 30
Barnyardgrass plant response rating [10, 21]: 20
Plant response rating, Barnyardgrass [10, 22]: 20
Plant response rating, Wheat [11, 15]: 0
Plant response rating, Wheat [11, 16]: 20

Cc1nn(C)c(=O)c(-c2c(C)sc3ccc(Cl)cc23)c1O [Compound 104]
Plant response rating, Crabgrass, Large [1, 24]: 20
Plant response rating, Crabgrass, Large [1, 12]: 35
Plant response rating, Crabgrass, Large [1, 13]: 55
Plant response rating, Crabgrass, Large [1, 25]: 40
Plant response rating, Crabgrass, Large [1, 26]: 55
Plant response rating, Crabgrass, Large [1, 27]: 55
Crabgrass, Large plant response rating [1, 28]: 60
Crabgrass, Large plant response rating [1, 14]: 30
Plant response rating, Oilseed Rape [2, 24]: 85
Plant response rating, Oilseed Rape [2, 12]: 95
Plant response rating, Oilseed Rape [2, 13]: 98
Plant response rating, Oilseed Rape [2, 25]: 5
Plant response rating, Oilseed Rape [2, 26]: 30
Plant response rating, Oilseed Rape [2, 27]: 85
Oilseed Rape plant response rating [2, 28]: 95
Plant response rating, Galium [3, 15]: 100
Plant response rating, Galium [3, 16]: 100
Plant response rating, Blackgrass [4]: 90
Blackgrass plant response rating [4]: 90
Plant response rating, Oat, Wild [5, 29]: 80
Plant response rating, Oat, Wild [5, 17]: 90
Plant response rating, Oat, Wild [5, 18]: 90
Plant response rating, Kochia (kochia (Kochia scoparia) [6]; [29]): 95
Plant response rating, Kochia (kochia (Kochia scoparia) [6]; [17]): 95
Plant response rating, Kochia (kochia (Kochia scoparia) [6]; [18]): 100
Plant response rating, Ragweed [7, 19]: 100
Plant response rating, Ragweed [7, 20]: 100
Ragweed plant response rating [7, 21]: 90
Plant response rating, Ragweed [7, 22]: 100
Plant response rating, Corn (corn (Zea mays); [15]): 0
Plant response rating, Corn (corn (Zea mays); [16]): 20
Plant response rating, Kochia (kochia (Kochia scoparia) [8]; [19]): 90
Plant response rating, Kochia (kochia (Kochia scoparia) [8]; [20]): 100
Kochia plant response rating (kochia (Kochia scoparia) [8]; [21]): 100
Plant response rating, Kochia (kochia (Kochia scoparia) [8]; [22]): 100
Plant response rating, Pigweed [9, 19]: 90
Plant response rating, Pigweed [9, 20]: 90
Pigweed plant response rating [9, 21]: 100
Plant response rating, Pigweed [9, 22]: 100
Plant response rating, Barnyardgrass [10, 19]: 70
Barnyardgrass plant response rating [10, 23]: 100
Barnyardgrass plant response rating [10, 21]: 80
Plant response rating, Barnyardgrass [10, 22]: 100
Plant response rating, Wheat [11, 15]: 20
Plant response rating, Wheat [11, 16]: 20
